Data on 7 compounds can be found in PubChem BioAssay (NCI).

Holding throughout (assay): DTP human tumour cell line panel, 48 h
Assay [1] has as its system 786-0 renal.
For assay [2], the system named is A498 renal.
Assay [3] has as its system BT-549 breast.
Assay [4] has as its system DU-145 prostate.
Assay [5] deals with EKVX NSCLC.
Assay [6] deals with K-562 leukemia.
Assay [7] has as its system NCI/ADR-RES ovarian.
Assay [8] deals with OVCAR-4 ovarian.
For assay [9], the system named is TK-10 renal.
Assay [10] deals with UACC-62 melanoma.

SMILES strings stand for the structures.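 All cell lines were grown in 96-well plates and treated with compound for 48 hours. GI50 = concentration required for 50% inhibition of growth. Definition used: TGI = concentration required for complete inhibition of growth.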 A value given as a limit tells only on which side of the number the result lay.

As for `Cn1c(/C(C#N)=C/c2ccc3ccccc3c2)cc2ccccc21`, the GI50 is 0.424 µM in assay [1]; 0.0409 µM in [2]; 0.474 µM in assay [3]; 0.456 µM in assay [4]; 0.471 µM in assay [5]; 0.0455 µM in assay [6]. Moreover, the concentration for 50% growth inhibition (GI50) in assay [7] was 0.0648 µM; in [8], above 100 µM; in [9] it was above 100 µM; in assay [10] it was 0.0425 µM. Besides, the TGI in [1] is above 100 µM; in assay [2], 0.552 µM; in assay [3] it was above 100 µM; in assay [4], above 100 µM; in assay [5], above 100 µM; in [6], above 100 µM. The concentration for total growth inhibition (TGI) in [7], in [8], in [9] and in [10] was above 100 µM each time.
Turning to `CCC(=C(c1ccc(OCCCN(C)C)cc1)c1ccc(OCCCN(C)C)cc1)c1ccc(Cl)cc1`, the GI50 in [1] is 0.35 µM; in assay [2] it was 1.7 µM; in assay [3], 2.54 µM; in assay [4], 1.01 µM; in assay [5], 2.43 µM; in [6], 0.324 µM. Also, the GI50 in assay [7] is 1.95 µM; in assay [8], 0.922 µM; in [9], 3.26 µM; in assay [10], 0.345 µM. Also, the TGI came to 0.759 µM in [1]; 4.39 µM in assay [2]; 4.94 µM in assay [3]; 3.16 µM in assay [4]; 4.9 µM in assay [5]; 0.78 µM in assay [6]. Also, the TGI in assay [7] was 4.14 µM; in assay [8], 2.41 µM; in [9], 6.01 µM; in assay [10] it was 0.782 µM.
As for `COCCOCCOCc1n(Cc2ccc3ccccc3n2)c2ccccc2[n+]1Cc1ccc2ccccc2c1`, the GI50 in assay [1] was 1.53 µM; in assay [2], 0.627 µM; in assay [3], 0.277 µM; in assay [4], 0.593 µM; in assay [5] it was 1.27 µM; in assay [6], 0.291 µM. Moreover, the GI50 in assay [7] was 23.4 µM; in assay [8] it was 0.385 µM; in [9] it was 1.04 µM; in [10] it was 0.364 µM. Besides, the TGI in [1] stood at 3.04 µM; in [2], 2.83 µM; in assay [3] it was 0.977 µM; in assay [4] it was 12.6 µM; in assay [5], 10.8 µM; in assay [6] it was 1.7 µM. Besides, the TGI in assay [7] is above 100 µM; in assay [8], 7.42 µM; in assay [9] it was 2.42 µM; in assay [10], 1.36 µM.
Consider `O=C1C(Cl)=C(Nc2ccccc2)C(=O)c2ccccc21`, for which the GI50 in assay [1] was 6.57 µM; in assay [2] it was 8.93 µM; in assay [3], 1.7 µM; in [4], 9.34 µM; in assay [5], 2.21 µM; in [6], 0.648 µM. The GI50 was 2.11 µM in assay [7], 1.63 µM in assay [8], 11 µM in assay [9] and 1.72 µM in assay [10]. The TGI in [1] is 19.6 µM; in assay [2], 35.3 µM; in [3], 3.09 µM; in assay [4], 22 µM; in assay [5], 5.38 µM; in [6] it was above 100 µM. The TGI was 4.89 µM in assay [7], 3 µM in assay [8], above 100 µM in assay [9] and 3.3 µM in assay [10].
As for `O=S(=O)(CCOCc1ccc(-c2ccc3ncnc(Nc4ccc(OCc5cccc(F)c5)c(Cl)c4)c3c2)o1)c1ccccc1`, the GI50 in [1] is above 25 µM; in [2], above 7 µM; in [3], above 25 µM; in assay [4] it was above 25 µM; in assay [5], 0.754 µM; in [6], above 25 µM. For the same compound, the GI50 in assay [7] was above 25 µM; in assay [8], above 25 µM; in assay [9], 1.17 µM; in [10], above 25 µM. Further, the concentration for total growth inhibition (TGI) in assay [1], in [2], in assay [3], in assay [4], in assay [5] and in [6] was above 25 µM each time. For the same compound, the TGI in assay [7], in assay [8], in assay [9] and in assay [10] was above 25 µM in each case.
On to `O=S1(=O)NCCCN1CCNc1nccc(-c2c(-c3cccc(O)c3)nc3sccn23)n1`, for which the GI50 is 14.4 µM in assay [1]; 15.5 µM in assay [2]; 24.3 µM in [3]; 15.9 µM in assay [4]; 61.3 µM in assay [5]; 21.6 µM in [6]. Moreover, the GI50 in assay [7] is above 100 µM; in assay [8], 17.5 µM; in [9], 33.6 µM; in assay [10], 0.0873 µM. For the same compound, the concentration for total growth inhibition (TGI) in [1] was above 100 µM; in assay [2] it was 45.9 µM; in assay [3] it was above 100 µM; in assay [4] it was above 100 µM; in assay [5], above 100 µM; in assay [6] it was above 100 µM. The TGI was above 100 µM in assay [7], above 96.1 µM in [8], above 100 µM in assay [9] and 5.66 µM in assay [10].
`CCCCCCCCCCCC[n+]1ccccc1` (tested in a mixture with another compound): the GI50 in [1] was 1.95 µM; in assay [2] it was 1.84 µM; in assay [3], 0.268 µM; in assay [4], 1.5 µM; in assay [5] it was 0.428 µM; in [6] it was 0.392 µM. Also, the GI50 is 14.4 µM in [7], 0.683 µM in assay [8], 0.427 µM in assay [9] and 1.09 µM in [10]. For the same compound, the total growth inhibition concentration (TGI) in assay [1] came to 5.92 µM; in [2], 7.25 µM; in [3], 1.06 µM; in assay [4], 9.88 µM; in assay [5] it was 5.13 µM; in assay [6], 11 µM. Also, the TGI was found to be 52.2 µM in assay [7], 12.4 µM in assay [8], 1.86 µM in assay [9] and 2.54 µM in assay [10].

By GI50 is commonly meant the concentration that inhibits growth by half. As a reminder, the TGI is the concentration giving total growth inhibition.
